Experimental data as given in patent US20030194750A1, “Methods for treatment of diseases where GSK 3-beta is desired, and methods to identify compounds usefule for that” (priority 2002, published 2003).
Like-named read-outs stand apart in the source and are kept apart here.

Experiments:
[1] = biological target: T1, GST-cGB-PDE5 fusion protein (Homo sapiens, UniProt O76074); assay: cGMP binding assay with GST-cGB-PDE5 fusion protein; settings: for competition with cGMP binding at high concentration: 100 μM compound vs cGMP 2 μM
T1 construct: made in house; host or cells: E. coli BL21 (DE3)
T1 sequence (O76074 46-539 limits assumed): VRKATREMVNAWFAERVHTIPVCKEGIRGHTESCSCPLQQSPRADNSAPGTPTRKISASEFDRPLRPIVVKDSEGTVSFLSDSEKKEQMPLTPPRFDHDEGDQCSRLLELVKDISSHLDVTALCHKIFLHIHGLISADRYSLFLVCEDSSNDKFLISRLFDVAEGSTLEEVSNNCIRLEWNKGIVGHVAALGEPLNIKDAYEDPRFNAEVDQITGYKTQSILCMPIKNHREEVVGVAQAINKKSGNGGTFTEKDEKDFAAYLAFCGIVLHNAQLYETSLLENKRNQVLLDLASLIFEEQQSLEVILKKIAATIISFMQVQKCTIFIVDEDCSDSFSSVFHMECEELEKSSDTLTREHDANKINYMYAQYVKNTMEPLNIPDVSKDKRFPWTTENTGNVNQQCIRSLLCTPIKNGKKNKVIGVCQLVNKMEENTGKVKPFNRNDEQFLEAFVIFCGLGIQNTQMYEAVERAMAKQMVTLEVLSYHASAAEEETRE
Method: 5′-3′, Inc. kits for total RNA followed by oligo (dT) column purification of mRNA are used with HT-29 cells. […] It is then cloned into pGEX-5X-3 glutathione-S-transferase (GST) fusion vector (Pharmacia Biotech) with tac promoter, and EcoRI and XhoI cut sites. The fusion vector is then transfected into E. Coli BL21 (DE3) bacteria (Invitrogen). The transfected BL21 bacteria is grown to log phase, and then IPTG is added as an inducer. The induction is carried at 20° C. for 24 hrs. The bacteria are harvested and lysed. The soluble cell lysate is incubated with GSH conjugated Sepharose 4B (GSH-Sepharose 4B). The GST-cGB-PDE5 fusion protein can bind to the GSH-Sepharose beads, and the other proteins are washed off from beads with excessive cold PBS.
Then, the mixture is transferred to Brandel MB-24 cell harvester with GF/B as the filter membrane followed by 2 washes with 10 mL of cold 5 mM potassium buffer( pH 6.8). The membranes are then cut out and transferred to scintillation vials followed by the addition of 1 mL of H2O and 6 mL of Ready Safe™ liquid scintillation cocktail to each vial. The vials are counted on a Beckman LS 6500 scintillation counter.
The quenching by filter membrane or other debris are also calibrated.

[2] = test system: PKG1β; assay: Western blot of PKG1β in SW480 cells; assay type: cell-based, human; settings: various concentrations, 48 hours
Method: (§1) 50 μg protein/lane were analyzed by Western blot analysis using specific anti-PKG1β and anti-GSK3β-phospho-ser9 antibodies.

[3] = test system: GSK3β; assay: Western blot of GSK3β-phospho-ser9 in SW480 cells; assay type: cell-based, human; settings: various concentrations, 48 hours, vs 0 concentration
Method: as §1

Structure (SMILES) | competition with cGMP for the cGMP binding sites ([1]; 3H-cGMP 2 μM, 22° C., 1 hour) | also measured
Nc1ncnc2c1ncn2[C@@H]1O[C@@H]2COP(=O)(O)O[C@H]2[C@H]1O [Cyclic AMP] |  | competition with cGMP for the cGMP binding sites [1]: did not compete with cGMP in binding
O=c1[nH]cnc2c1ncn2[C@@H]1O[C@@H]2COP(=O)(O)O[C@H]2[C@H]1O [Cyclic IMP] |  | competition with cGMP binding at high concentration [1]: can partially compete with cGMP
Nc1nc2c(nc(Br)n2[C@@H]2O[C@@H]3COP(=O)(O)O[C@H]3[C@H]2O)c(=O)[nH]1 [Example 8-bromo-cGMP, 8-bromo-cGMP] |  | competition with cGMP binding at high concentration [1]: can partially compete with cGMP
CCCCOC1C2OP(=O)(O)OCC2OC1n1cnc2c(N)ncnc21 (centres unmarked) [2′-O-butyl-cAMP] | did not compete with cGMP in binding | 
CCCOc1ccccc1-c1nc2nn[nH]c2c(=O)[nH]1 [zaprinast] | None of the PDE5 inhibitors showed any competition with cGMP in binding | 
COc1cc(/C=C2/C(C)=C(CC(=O)NCc3ccccc3)c3cc(F)ccc32)cc(OC)c1OC [Compound A, 1H-indene-3-acetamide, 5-fluoro-2-methyl-N-(phenylmethyl)-1-[(3,4,5-trimethoxyphenyl)methylene]-, (1Z)] |  | PKG1 induction [2]: PKG1 induction in a dose-dependent manner; GSK3β inactivation by Ser9 phosphorylation [3]: inactivated in vivo by phosphorylation of its Ser9
CSc1ccc(/C=C2/C(C)=C(CC(=O)O)c3cc(F)ccc32)cc1 [Sulindac sulfide] | None of the PDE5 inhibitors showed any competition with cGMP in binding | 

Continued, in another order:

competition with cGMP for the cGMP binding sites ([1]; 3H-cGMP 2 μM, 22° C., 1 hour) | Structure (SMILES) | also measured
did not compete with cGMP in binding | O=c1ccn([C@@H]2O[C@@H]3COP(=O)(O)O[C@H]3[C@H]2O)c(=O)[nH]1 [cUMP, cyclic UMP] | 
did not compete with cGMP in binding | Nc1ccn([C@@H]2O[C@@H]3COP(=O)(O)O[C@H]3[C@H]2O)c(=O)n1 [cCMP, cyclic CMP] | 
did not compete with cGMP in binding | CCCCOC1C2OP(=O)(O)OCC2OC1n1cnc2c(=O)[nH]c(N)nc21 (centres unmarked) [2′-O-butyl-cGMP] | 
